Reference: PubChem BioAssay AID1963829 (Molecular Pharmacology Branch, DTP, NCI, 2024)

Test system: 935938-334-R-J1-PDC complex spheroid viability
Assay: Anticancer human tumor 935938-334-R-J1-PDC patient-derived small intestine adenocarcinoma cell line growth inhibition [POLQ]
Settings: for IC50: curve of first compound; for viability, T/C: stronger effect = lower value
Summary of the method: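 Growth inhibition in 3D: complex spheroids (tumor PDC, HUVEC, MSC) treated with POLQ inhibitor combinations; where Cmax unknown, highest tested concentration 10 microM, except SN-38 at 1 microM.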

[1] = second compound 0.0316 µM, first compound 0.0316 µM
[2] = second compound 0.0316 µM, first compound 0.1 µM
[3] = second compound 0.0316 µM, first compound 0.316 µM
[4] = second compound 0.0316 µM, first compound 1 µM
[5] = second compound 0.0316 µM, first compound 3.16 µM
[6] = second compound 0.0316 µM, first compound 10 µM
[7] = second compound 0.1 µM, first compound 0.0316 µM
[8] = second compound 0.1 µM, first compound 0.1 µM
[9] = second compound 0.1 µM, first compound 0.316 µM
[10] = second compound 0.1 µM, first compound 1 µM
[11] = second compound 0.1 µM, first compound 3.16 µM
[12] = second compound 0.1 µM, first compound 10 µM
[13] = second compound 0.316 µM, first compound 0.0316 µM
[14] = second compound 0.316 µM, first compound 0.1 µM
[15] = second compound 0.316 µM, first compound 0.316 µM
[16] = second compound 0.316 µM, first compound 1 µM
[17] = second compound 0.316 µM, first compound 3.16 µM
[18] = second compound 0.316 µM, first compound 10 µM
[19] = second compound 1 µM, first compound 0.0316 µM
[20] = second compound 1 µM, first compound 0.1 µM
[21] = second compound 1 µM, first compound 0.316 µM
[22] = second compound 1 µM, first compound 1 µM
[23] = second compound 1 µM, first compound 3.16 µM
[24] = second compound 1 µM, first compound 10 µM
[25] = second compound 3.16 µM, first compound 0.0316 µM
[26] = second compound 3.16 µM, first compound 0.1 µM
[27] = second compound 3.16 µM, first compound 0.316 µM
[28] = second compound 3.16 µM, first compound 1 µM
[29] = second compound 3.16 µM, first compound 3.16 µM
[30] = second compound 3.16 µM, first compound 10 µM
[31] = second compound 10 µM, first compound 0.0316 µM
[32] = second compound 10 µM, first compound 0.1 µM
[33] = second compound 10 µM, first compound 0.316 µM
[34] = second compound 10 µM, first compound 1 µM
[35] = second compound 10 µM, first compound 3.16 µM
[36] = second compound 10 µM, first compound 10 µM
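Also: spheroids exposed to drugs for seven days before viability read.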
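For viability, T/C in this document: 100% = DMSO vehicle control wells.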

CC(=O)O[C@H]1C(=O)[C@@]2(C)[C@H]([C@H](OC(=O)c3ccccc3)[C@]3(O)C[C@H](OC(=O)[C@H](O)[C@@H](NC(=O)c4ccccc4)c4ccccc4)C(C)=C1C3(C)C)[C@]1(OC(C)=O)CO[C@@H]1C[C@@H]2O + Cc1cccc(N(C)C(=O)C2C(O)CCN2c2nc(C)cc(C(F)(F)F)c2C#N)c1
IC50 (second compound 0.0316 µM): < 0.00949 µM | IC50 (second compound 0.1 µM): < 0.00949 µM | IC50 (second compound 0.316 µM): < 0.00949 µM | IC50 (second compound 1 µM): < 0.00949 µM | IC50 (second compound 3.16 µM): < 0.00949 µM | IC50 (second compound 10 µM): < 0.00949 µM | viability, T/C (second compound 0.0316 µM, first compound 0.00949 µM): 35.9% | viability, T/C (second compound 0.0316 µM, first compound 0.03 µM): 21.7% | viability, T/C (second compound 0.0316 µM, first compound 0.0949 µM): 16.1% | viability, T/C (second compound 0.0316 µM, first compound 0.3 µM): 15.5% | viability, T/C (second compound 0.0316 µM, first compound 0.949 µM): 19.6% | viability, T/C (second compound 0.0316 µM, first compound 3 µM): 18.6% | viability, T/C (second compound 0.1 µM, first compound 0.00949 µM): 38.3% | viability, T/C (second compound 0.1 µM, first compound 0.03 µM): 20.5% | viability, T/C (second compound 0.1 µM, first compound 0.0949 µM): 13.9% | viability, T/C (second compound 0.1 µM, first compound 0.3 µM): 13.2% | viability, T/C (second compound 0.1 µM, first compound 0.949 µM): 19.7% | viability, T/C (second compound 0.1 µM, first compound 3 µM): 15.4% | viability, T/C (second compound 0.316 µM, first compound 0.00949 µM): 35.3% | viability, T/C (second compound 0.316 µM, first compound 0.03 µM): 21.7% | viability, T/C (second compound 0.316 µM, first compound 0.0949 µM): 16.7% | viability, T/C (second compound 0.316 µM, first compound 0.3 µM): 19% | viability, T/C (second compound 0.316 µM, first compound 0.949 µM): 21.5% | viability, T/C (second compound 0.316 µM, first compound 3 µM): 16% | viability, T/C (second compound 1 µM, first compound 0.00949 µM): 34.2% | viability, T/C (second compound 1 µM, first compound 0.03 µM): 19.4% | viability, T/C (second compound 1 µM, first compound 0.0949 µM): 15.6% | viability, T/C (second compound 1 µM, first compound 0.3 µM): 16.9% | viability, T/C (second compound 1 µM, first compound 0.949 µM): 18.6% | viability, T/C (second compound 1 µM, first compound 3 µM): 16% | viability, T/C (second compound 3.16 µM, first compound 0.00949 µM): 38.3% | viability, T/C (second compound 3.16 µM, first compound 0.03 µM): 17.8% | viability, T/C (second compound 3.16 µM, first compound 0.0949 µM): 15.4% | viability, T/C (second compound 3.16 µM, first compound 0.3 µM): 16% | viability, T/C (second compound 3.16 µM, first compound 0.949 µM): 19.2% | viability, T/C (second compound 3.16 µM, first compound 3 µM): 15.8% | viability, T/C (second compound 10 µM, first compound 0.00949 µM): 31.6% | viability, T/C (second compound 10 µM, first compound 0.03 µM): 17.8% | viability, T/C (second compound 10 µM, first compound 0.0949 µM): 12.4% | viability, T/C (second compound 10 µM, first compound 0.3 µM): 14.9% | viability, T/C (second compound 10 µM, first compound 0.949 µM): 18.1% | viability, T/C (second compound 10 µM, first compound 3 µM): 14.4%

CCc1cc2c(N3CCc4c(cc(Cn5ccnc5)cc4-c4cn(C)nc4C(F)(F)F)C3=O)ccnc2c(OC)n1 + COC1C(OC(N)=O)C(O)C(Oc2ccc3c(O)c(NC(=O)c4ccc(O)c(CC=C(C)C)c4)c(=O)oc3c2C)OC1(C)C
IC50 (second compound 0.0316 µM): > 10 µM | IC50 (second compound 0.1 µM): > 10 µM | IC50 (second compound 0.316 µM): > 10 µM | IC50 (second compound 1 µM): > 10 µM | IC50 (second compound 3.16 µM): > 10 µM | IC50 (second compound 10 µM): > 10 µM | viability, T/C [1]: 73.3% | viability, T/C [2]: 86.7% | viability, T/C [3]: 72.2% | viability, T/C [4]: 94.4% | viability, T/C [5]: 82.7% | viability, T/C [6]: 65.9% | viability, T/C [7]: 85.7% | viability, T/C [8]: 77.2% | viability, T/C [9]: 64.6% | viability, T/C [10]: 83.8% | viability, T/C [11]: 86.5% | viability, T/C [12]: 64.5% | viability, T/C [13]: 97.2% | viability, T/C [14]: 62.6% | viability, T/C [15]: 85% | viability, T/C [16]: 73.2% | viability, T/C [17]: 90.5% | viability, T/C [18]: 70.3% | viability, T/C [19]: 64.7% | viability, T/C [20]: 81.9% | viability, T/C [21]: 62.5% | viability, T/C [22]: 63.9% | viability, T/C [23]: 87.5% | viability, T/C [24]: 62.1% | viability, T/C [25]: 74.5% | viability, T/C [26]: 85.5% | viability, T/C [27]: 88.5% | viability, T/C [28]: 59.5% | viability, T/C [29]: 73.5% | viability, T/C [30]: 72% | viability, T/C [31]: 69.7% | viability, T/C [32]: 67.2% | viability, T/C [33]: 66.1% | viability, T/C [34]: 73.6% | viability, T/C [35]: 81.2% | viability, T/C [36]: 72.2%

C#Cc1c(F)ccc2cc(O)cc(-c3ncc4c(N5CC6CCC(C5)N6)nc(OCC56CCCN5CC(F)C6)nc4c3F)c12 (stereo not drawn) + Nc1ccc(C#CCN(C(=O)Cc2ncc(C(F)(F)F)cc2C(F)(F)F)c2ccc(F)cc2)nn1
IC50 (second compound 0.0316 µM): 5.75 µM | IC50 (second compound 0.1 µM): > 10 µM | IC50 (second compound 0.316 µM): 2.92 µM | IC50 (second compound 1 µM): 2.85 µM | IC50 (second compound 3.16 µM): > 10 µM | IC50 (second compound 10 µM): 2.94 µM | viability, T/C [1]: 97.5% | viability, T/C [2]: 104% | viability, T/C [3]: 84.6% | viability, T/C [4]: 74.1% | viability, T/C [5]: 65% | viability, T/C [6]: 38.4% | viability, T/C [7]: 97.9% | viability, T/C [8]: 84.8% | viability, T/C [9]: 90.4% | viability, T/C [10]: 97.4% | viability, T/C [11]: 52.1% | viability, T/C [12]: 53.6% | viability, T/C [13]: 83.7% | viability, T/C [14]: 114% | viability, T/C [15]: 92% | viability, T/C [16]: 68.2% | viability, T/C [17]: 52% | viability, T/C [18]: 42.1% | viability, T/C [19]: 81.4% | viability, T/C [20]: 111% | viability, T/C [21]: 92.1% | viability, T/C [22]: 73.4% | viability, T/C [23]: 48.6% | viability, T/C [24]: 41.8% | viability, T/C [25]: 105% | viability, T/C [26]: 99.6% | viability, T/C [27]: 66.9% | viability, T/C [28]: 66.4% | viability, T/C [29]: 61.1% | viability, T/C [30]: 67.2% | viability, T/C [31]: 108% | viability, T/C [32]: 96.7% | viability, T/C [33]: 76.2% | viability, T/C [34]: 63.6% | viability, T/C [35]: 43% | viability, T/C [36]: 48.9%

CC(C)n1c(=O)n(C)c2cnc3cc(F)c(-c4ccc(OCCCN5CCCCC5)nc4)cc3c21 + Nc1ccc(C#CCN(C(=O)Cc2ncc(C(F)(F)F)cc2C(F)(F)F)c2ccc(F)cc2)nn1
IC50 (second compound 0.0316 µM): > 10 µM | IC50 (second compound 0.1 µM): > 10 µM | IC50 (second compound 0.316 µM): > 10 µM | IC50 (second compound 1 µM): > 10 µM | IC50 (second compound 3.16 µM): > 10 µM | IC50 (second compound 10 µM): > 10 µM | viability, T/C [1]: 94.3% | viability, T/C [2]: 84.3% | viability, T/C [3]: 132% | viability, T/C [4]: 82.9% | viability, T/C [5]: 90.5% | viability, T/C [6]: 79.4% | viability, T/C [7]: 100% | viability, T/C [8]: 102% | viability, T/C [9]: 111% | viability, T/C [10]: 84.9% | viability, T/C [11]: 117% | viability, T/C [12]: 90.6% | viability, T/C [13]: 101% | viability, T/C [14]: 99.4% | viability, T/C [15]: 84.9% | viability, T/C [16]: 101% | viability, T/C [17]: 113% | viability, T/C [18]: 98.4% | viability, T/C [19]: 120% | viability, T/C [20]: 77.8% | viability, T/C [21]: 102% | viability, T/C [22]: 113% | viability, T/C [23]: 128% | viability, T/C [24]: 85.7% | viability, T/C [25]: 93.2% | viability, T/C [26]: 97.7% | viability, T/C [27]: 98.2% | viability, T/C [28]: 92.4% | viability, T/C [29]: 100% | viability, T/C [30]: 94.4% | viability, T/C [31]: 107% | viability, T/C [32]: 88.8% | viability, T/C [33]: 82.9% | viability, T/C [34]: 107% | viability, T/C [35]: 110% | viability, T/C [36]: 109%
